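All cell lines were grown in 96-well plates and treated with compound for 48 hours. GI50 is the concentration that inhibits growth by half.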 The source made the active and inactive calls. No stated cut-off is given here; in the data, active = GI50 up to about 1.1 µM and inactive = higher.
Assays:
Assay in all cases: DTP human tumour cell line panel, 48 h
786-0 = test system: 786-0
ACHN = test system: ACHN
EKVX = test system: EKVX
HCT-15 = test system: HCT-15
HOP-62 = test system: HOP-62
HT-29 = test system: HT-29
LOX IMVI = test system: LOX IMVI
MDA-MB-231 = test system: MDA-MB-231
MDA-MB-435 = test system: MDA-MB-435
NCI-H522 = test system: NCI-H522
OVCAR-4 = test system: OVCAR-4
SN12C = test system: SN12C
SNB-75 = test system: SNB-75
SW-620 = test system: SW-620
TK-10 = test system: TK-10
U-251 = test system: U-251
UACC-257 = test system: UACC-257
UO-31 = test system: UO-31
NCI-H460 = test system: NCI-H460
MDA-N = test system: MDA-N

SMILES | GI50 (786-0) | GI50 (ACHN) | GI50 (EKVX) | GI50 (HCT-15) | GI50 (HOP-62) | GI50 (HT-29) | GI50 (LOX IMVI) | GI50 (MDA-MB-231) | GI50 (MDA-MB-435) | GI50 (NCI-H522) | GI50 (OVCAR-4) | GI50 (SN12C) | GI50 (SNB-75) | GI50 (SW-620) | GI50 (TK-10) | GI50 (U-251) | GI50 (UACC-257) | GI50 (UO-31) | GI50 (NCI-H460) | GI50 (MDA-N)
Cn1c(=O)c2c(n(C)c1=O)n1c(=O)c3ccccc3nc1n2C | 82.2 µM (inactive) | > 100 µM (inactive) | > 100 µM (inactive) | > 100 µM | 39.9 µM (inactive) | > 100 µM (inactive) | 83.9 µM (inactive) | > 100 µM (inactive) | > 100 µM (inactive) | 90.4 µM (inactive) | > 100 µM (inactive) | > 100 µM (inactive) | 39.4 µM (inactive) | > 100 µM (inactive) | > 100 µM (inactive) | 83.6 µM (inactive) | > 100 µM (inactive) | > 100 µM (inactive) |  | 
CCCC(=O)/C=C/S/C=C/C(=O)CCC | 2.1 µM (inactive) | 2.7 µM (inactive) | 3.29 µM (inactive) | 2.36 µM | 11.4 µM (inactive) | 3.26 µM (inactive) | 2.38 µM (inactive) | 4.84 µM (inactive) | 5.46 µM (inactive) | 1.71 µM (inactive) | 4.42 µM (inactive) | 13.2 µM (inactive) | 27.2 µM (inactive) | 2.28 µM (inactive) | 2.51 µM (inactive) | 14.3 µM (inactive) | 2.27 µM (inactive) | 4.13 µM (inactive) | 5.3 µM (inactive) | 
O=C1CC(c2ccccc2)n2cccc21 (stereo not given) | > 100 µM (inactive) | > 100 µM (inactive) | > 100 µM (inactive) | > 100 µM | > 100 µM (inactive) | > 100 µM (inactive) | > 100 µM (inactive) | > 100 µM (inactive) | > 100 µM (inactive) | > 100 µM (inactive) | > 100 µM (inactive) | > 100 µM (inactive) | > 100 µM (inactive) | > 100 µM (inactive) | > 100 µM (inactive) | > 100 µM (inactive) | > 100 µM (inactive) | 67.6 µM (inactive) |  | 
CC(C)c1ccc(NC(=S)NC(=O)c2ccccc2)cc1 | 18.4 µM (inactive) | 18.2 µM (inactive) | 30.8 µM (inactive) | 17.6 µM | 33.8 µM (inactive) | 10.4 µM (inactive) | 15.3 µM (inactive) | 26.6 µM (inactive) | 13.8 µM (inactive) | 17.4 µM (inactive) | 16.9 µM (inactive) | 34.6 µM (inactive) |  | 22.3 µM (inactive) | 18.2 µM (inactive) | 26.9 µM (inactive) | 14.8 µM (inactive) | 3.94 µM (inactive) | 15.5 µM (inactive) | 
N#C/C(C(=O)Nc1ccc(Cl)cc1)=C(/N)N1CCCCC1 | > 100 µM (inactive) | > 100 µM (inactive) | 45.1 µM (inactive) | > 100 µM | 41.3 µM (inactive) |  | 83.4 µM (inactive) |  | > 100 µM (inactive) |  |  | > 100 µM (inactive) | 24.7 µM (inactive) | > 100 µM (inactive) |  | 56.5 µM (inactive) | > 100 µM (inactive) | 22.3 µM (inactive) | > 100 µM (inactive) | > 100 µM (inactive)
N#Cc1c(-c2ccc([N+](=O)[O-])cc2)c(C#N)c(=O)n(NS(=O)(=O)c2ccccc2)c1S | 32.1 µM (inactive) | 37.8 µM (inactive) | 31.3 µM (inactive) | 36.9 µM | > 100 µM (inactive) | 36.3 µM (inactive) | 18.4 µM (inactive) | 21.3 µM (inactive) | 38.5 µM (inactive) | 21.2 µM (inactive) | > 100 µM (inactive) | 17.4 µM (inactive) | 39.6 µM (inactive) | 22.1 µM (inactive) | > 100 µM (inactive) | 41.3 µM (inactive) | 99.8 µM (inactive) |  | 48.8 µM (inactive) | 
C#CCN(N=O)C(=O)ON1C(=O)CCC1=O | > 100 µM (inactive) | > 100 µM (inactive) | > 100 µM (inactive) | > 100 µM | > 100 µM (inactive) | > 100 µM (inactive) | > 100 µM (inactive) |  |  | > 100 µM (inactive) | > 100 µM (inactive) | > 100 µM (inactive) | > 100 µM (inactive) | > 100 µM (inactive) | > 100 µM (inactive) | 74.8 µM (inactive) | > 100 µM (inactive) | > 100 µM (inactive) | > 100 µM (inactive) | 
O=S(=O)(c1ccccc1)N1N=C2c3ccccc3CCC[C@H]2C1c1ccccc1 (stereo not given in full) | > 100 µM (inactive) | > 100 µM (inactive) | > 84.3 µM (inactive) | > 100 µM | > 100 µM (inactive) | > 100 µM (inactive) | > 87.9 µM (inactive) |  |  | > 100 µM (inactive) | > 100 µM (inactive) | > 100 µM (inactive) | > 74.6 µM (inactive) | > 100 µM (inactive) | > 100 µM (inactive) | > 100 µM (inactive) | > 100 µM (inactive) | > 60.8 µM (inactive) | 98.6 µM (inactive) | 
